# Test results from patent US11542261B2, “Substituted Imidazo[1,2-a]-pyridines as IRAK 1/4 and FLT3 inhibitors” (CHILDREN'S HOSPITAL MEDICAL CENTER, priority 2016, dated 2023).
# pIC50: −log10 of the molar value.
# Legend:
# MLL-AF9/FLT3-ITD cells = assay type: cell-based; details: Homo sapiens, MLL-AF9, Table 10
# [1] = Rat microsomal stability (RLM); assay type: in vitro ADME; details: Table 10
# MLL-AF9 NRas cells = experiment: NRAS IC50 (MLL-AF9 NRas cells); assay type: cell-based; details: Table 10
Compound,pIC50 (MLL-AF9/FLT3-ITD cells),Stability [1] [min],pIC50 (MLL-AF9 NRas cells)
N#CCC(=O)N1CC(Nc2cccc(-c3cnc4ccc(Cl)cn34)n2)C1 [Compound I-59],6.69,>30.0,–
"c1cc(NC2CCNC2)nc(-c2cnc3cc(OCCN4CCOCC4)c(-c4cn[nH]c4)cn23)c1 (stereo not drawn) [Compound I-41, 6-(7-(2-morpholinoethoxy)-6-(1H-pyrazol-4-yl)imidazo[1,2-a]pyridin-3-yl)-N-(pyrrolidin-3-yl)pyridin-2-amine]",–,>30.0,4.75
Cc1ccc(-c2cnc3ccc(Cl)cn23)nc1NC1CNC1 [Compound I-48],5.55,–,–
Clc1cc2ncc(-c3cccc(NC4CNC4)n3)n2cc1Cl [Compound I-62],6.81,>30.0,–
"COc1cc2ncc(-c3cccc(NC4CCNC4)n3)n2cc1-c1ccncc1 (stereo not drawn) [Compound I-23, 6-(7-methoxy-6-(pyridin-4-yl)imidazo[1,2-a]pyridin-3-yl)-N-(pyrrolidin-3-yl)pyridin-2-amine]",–,>30.0,5.74
"COc1ccn2c(-c3cccc(NC4CNC4)n3)cnc2c1 [Compound I-50, N-(azetidin-3-yl)-6-(7-methoxyimidazo[1,2-a]pyridin-3-yl)pyridin-2-amine]",–,>30.0,–
"c1cc(NC2CCNC2)nc(-c2cnc3ccc(-c4cn[nH]c4)cn23)c1 (stereo not drawn) [Compound I-54, 6-(6-(1H-pyrazol-4-yl)imidazo[1,2-a]pyridin-3-yl)-N-(pyrrolidin-3-yl)pyridin-2-amine]",6.97,–,–
Clc1ccc2ncc(-c3cc(Br)cc(NC4CNC4)n3)n2c1 [Compound I-53],5.30,>30.0,–
CN(c1cccc(-c2cnc3ccc(Cl)cn23)n1)C1CCNCC1 [Compound I-51],7.55,–,–
c1cc(N[C@@H]2CCNC2)nc(-c2cnc3ccc(-c4cn[nH]c4)cn23)c1 [Compound I-43],7.12,–,–
Clc1cn2c(-c3cccc(NC4CCNC4)n3)cnc2cc1OCCN1CCOCC1 (stereo not drawn) [Compound I-40],8.10,>30.0,6.20
COc1cc2ncc(-c3cccc(NC4CCNC4)n3)n2cc1-c1nnn[nH]1 (stereo not drawn) [Compound I-38],5.20,>30.0,8.70
"COc1cc2ncc(-c3cccc(NC4CCNC4)n3)n2cc1-c1c(C)noc1C (stereo not drawn) [Compound I-28, 6-(6-(3,5-dimethylisoxazol-4-yl)-7-methoxyimidazo[1,2-a]pyridin-3-yl)-N-(pyrrolidin-3-yl)pyridin-2-amine]",–,–,4.83
"Clc1ccc2ncc(-c3cccc(NC4CCCNC4)n3)n2c1 (stereo not drawn) [Compound I-17, 6-(6-chloroimidazo[1,2-a]pyridin-3-yl)-N-(piperidin-3-yl)pyridin-2-amine]",–,>30.0,–
Brc1ccc2ncc(-c3cccc(NC4CNC4)n3)n2c1 [Compound I-52],7.07,–,–
c1cc(NC2CNC2)nc(-c2cnc3ccc(-c4cn[nH]c4)cn23)c1 [Compound I-45],6.34,–,5.37
"c1cc(NC2CNC2)nc(-c2cnc3ccccn23)c1 [Compound I-12, N-(azetidin-3-yl)-6-(imidazo[1,2-a]pyridin-3-yl)pyridin-2-amine]",–,>30.0,–
COc1cc2ncc(-c3cccc(NC4CCNC4)n3)n2cc1OC (stereo not drawn) [Compound I-36],7.77,>30.0,5.35

Compound,pIC50 (MLL-AF9/FLT3-ITD cells),Stability [1] [min],pIC50 (MLL-AF9 NRas cells)
"COc1cc(NC2CNC2)nc(-c2cnc3ccc(Cl)cn23)c1 [Compound I-67, N-(azetidin-3-yl)-6-(6-chloroimidazo[1,2-a]pyridin-3-yl)-4-methoxypyridin-2-amine]",–,>30.0,–
c1cc(N[C@H]2CCNC2)nc(-c2cnc3ccc(-c4cn[nH]c4)cn23)c1 [Compound I-44],7.77,–,–
"COc1cc2ncc(-c3cccc(NC4CCNC4)n3)n2cc1-c1c(C)n[nH]c1C (stereo not drawn) [Compound I-25, 6-(6-(3,5-dimethyl-1H-pyrazol-4-yl)-7-methoxyimidazo[1,2-a]pyridin-3-yl)-N-(pyrrolidin-3-yl)pyridin-2-amine]",–,>30.0,4.80
CCN1CCN(c2ccc3ncc(-c4cccc(NC5CNC5)n4)n3c2)CC1 [Compound I-64],5.70,–,–
CC(=O)N1CC(Nc2cccc(-c3cnc4ccc(Cl)cn34)n2)C1 [Compound I-57],6.40,>30.0,–
"COc1cc2ncc(-c3cccc(NC4CCCNC4)n3)n2cc1-c1cn[nH]c1 (stereo not drawn) [Compound I-29, 6-(7-methoxy-6-(1H-pyrazol-4-yl)imidazo[1,2-a]pyridin-3-yl)-N-(piperidin-3-yl)pyridin-2-amine]",–,9.8,5.03
"COc1cc2ncc(-c3cccc(OC4CCNC4)n3)n2cc1-c1cn[nH]c1 (stereo not drawn) [Compound I-32, 7-methoxy-6-(1H-pyrazol-4-yl)-3-(6-(pyrrolidin-3-yloxy)pyridin-2-yl)imidazo[1,2-a]pyri-dine]",–,7.7,5.43
Cc1ccc(NC2CNC2)nc1-c1cnc2ccc(Cl)cn12 [Compound I-49],6.05,–,–
"Clc1ccc2ncc(-c3cccc(NC4CCNC4)n3)n2c1 (stereo not drawn) [Compound I-16, 6-(6-chloroimidazo[1,2-a]pyridin-3-yl)-N-(pyrrolidin-3-yl)pyridin-2-amine]",–,–,5.75
"Cc1ccn2c(-c3cccc(NC4CNC4)n3)cnc2c1 [Compound I-61, N-(azetidin-3-yl)-6-(7-methylimidazo[1,2-a]pyridin-3-yl)pyridin-2-amine]",–,>30.0,–
"COc1cc2ncc(-c3cccc(NC4CCNC4)n3)n2cc1Cl (stereo not drawn) [Compound I-21, 6-(6-chloro-7-methoxyimidazo[1,2-a]pyridin-3-yl)-N-(pyrrolidin-3-yl)pyridin-2-amine]",–,27,–
O=C(c1ccccc1)N1CC(Nc2cccc(-c3cnc4ccc(Cl)cn34)n2)C1 [Compound I-58],6.15,8.0,–
"COc1cc2ncc(-c3cccc(N(C)C4CCNC4)n3)n2cc1-c1cn[nH]c1 (stereo not drawn) [Compound I-31, 6-(7-methoxy-6-(1H-pyrazol-4-yl)imidazo[1,2-a]pyridin-3-yl)-N-methyl-N-(pyrrolidin-3-yl)pyridin-2-amine]",–,–,4.78
"COc1cc2ncc(-c3nc(NC4CCNC4)c(F)cc3F)n2cc1-c1cn[nH]c1 (stereo not drawn) [Compound I-33, 3,5-difluoro-6-(7-methoxy-6-(1H-pyrazol-4-yl)imidazo[1,2-a]pyridin-3-yl)-N-(pyrrolidin-3-yl)pyridin-2-amine]",–,9.3,4.53
"COc1cc(Cl)cn2c(-c3cccc(NC4CNC4)n3)cnc12 [Compound I-42, N-(azetidin-3-yl)-6-(6-chloro-8-methoxyimidazo[1,2-a]pyridin-3-yl)pyridin-2-amine]",–,–,4.68
"Clc1ccc2ncc(-c3cccc(NC4CNC4)n3)n2c1 [Compound I-15, N-(azetidin-3-yl)-6-(6-chloroimidazo[1,2-a]pyridin-3-yl)pyridin-2-amine]",5.93,–,4.78
Fc1cc(F)c(-c2cnc3ccc(Cl)cn23)nc1NC1CNC1 [Compound I-47],–,>30.0,5.73
"COc1cc2ncc(-c3cccc(NC4CCNC4)n3)n2cc1-c1cc[nH]c1 (stereo not drawn) [Compound I-27, 6-(7-methoxy-6-(1H-pyrrol-3-yl)imidazo[1,2-a]pyridin-3-yl)-N-(pyrrolidin-3-yl)pyridin-2-amine]",–,>30.0,5.35
